Reference: US6737383B1, “Herbicidal oxadiazolidines” (priority 1999, dated 2004)

Experiments:
[1] = system: bamyardgrass; assay: Test B flood test barnyardgrass; type: in vivo, Echinochloa crus-galli
In short: (§1)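 Flood test on plants grown to the 2-leaf stage; treated plants kept in greenhouse twelve to sixteen days, then visually rated against controls on a 0 (no effect) to 10 (complete control) scale.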

[2] = system: velvetleaf; assay: Test B pre/postemergence velvetleaf; type: in vivo, Abutilon theophrasti
In short: (§2)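 Test chemicals in a non-phytotoxic solvent mixture with surfactant were sprayed preemergence onto planted seeds and postemergence onto plants 2 to 18 cm tall (1- to 4-leaf stage). After twelve to sixteen days in a greenhouse, injury was visually rated against untreated controls from 0 (no effect) to 10 (complete control).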

[3] = system: crabgrass; assay: Test B pre/postemergence crabgrass; type: in vivo, Digitaria sanguinalis
In short: as §2

[4] = system: duck salad; assay: Test B flood test duck salad; type: in vivo, Heteranthera limosa
In short: as §1

[5] = system: wheat; assay: Test B pre/postemergence wheat; type: in vivo, Triticum aestivum
In short: as §2

[6] = system: corn; assay: Test B pre/postemergence corn; type: in vivo, Zea mays
In short: as §2

[7] = system: blackgrass; assay: Test B pre/postemergence blackgrass; type: in vivo, Alopecurus myosuroides
In short: as §2

[8] = system: surinam grass; assay: Test B pre/postemergence surinam grass; type: in vivo, Brachiaria decumbens
In short: as §2

[9] = system: purple nutsedge; assay: Test B pre/postemergence purple nutsedge; type: in vivo, Cyperus rotundus
In short: as §2

[10] = system: bedstraw; assay: Test B pre/postemergence bedstraw; type: in vivo, Galium aparine; settings: Postemergence
In short: as §2

[11] = system: wild oat; assay: Test B pre/postemergence wild oat; type: in vivo, Avena fatua
In short: as §2

[12] = system: rice; assay: Test B flood test rice; type: in vivo, Oryza sativa
In short: as §1

[13] = system: smallflower flatsedge; assay: Test B flood test smallflower flatsedge; type: in vivo, Cyperus difformis
In short: as §1

[14] = system: sugar beet; assay: Test B pre/postemergence sugar beet; type: in vivo, Beta vulgaris
In short: as §2

[15] = system: rape; assay: Test B pre/postemergence rape; type: in vivo, Brassica napus
In short: as §2

[16] = system: giant foxtail; assay: Test B pre/postemergence giant foxtail; type: in vivo, Setaria faberii
In short: as §2

[17] = Rate 62 g/ha, headed Pre-emergence (flood test species), scale 0 to 10 (0 no effect, 10 complete control)
[18] = Rate 125 g/ha, Pre-emergence, flood test species, scale 0 to 10 where 0 is no effect and 10 is complete control
[19] = Rate 250 g/ha, Pre-emergence, flood-test species, scale 0 to 10, 0 is no effect, 10 is complete control
[20] = Rate 500 g/ha, Pre-emergence, flood test species, scale 0 to 10 (0 no effect, 10 complete control)
[21] = Postemergence, Rate 125 g/ha, scale 0 to 10, 0 is no effect, 10 is complete control
[22] = Preemergence, Rate 62 g/ha, scale of 0 to 10 where 0 is no effect and 10 is complete control
[23] = Preemergence, Rate 250 g/ha, scale of 0 to 10 where 0 is no effect and 10 is complete control
[24] = Preemergence, Rate 500 g/ha, scale of 0 to 10 where 0 is no effect and 10 is complete control
[25] = Rate 62 g/ha, Postemergence, scale 0 to 10 (0 no effect, 10 complete control)
[26] = Rate 250 g/ha, Postemergence, scale of 0 to 10 where 0 is no effect and 10 is complete control
[27] = Rate 500 g/ha, Postemergence, scale 0 to 10, 0 no effect, 10 complete control

## CC(C)N(C(=O)n1oc(=O)n(C2CC3CCC2C3)c1=O)c1ccc(F)cc1 (centres unmarked) [Compound 327]
[1]; [17]
  Barnyardgrass plant response rating: 0
[1]; [18]
  Barnyardgrass plant response rating: 0
[1]; [19]
  Barnyardgrass plant response rating: 3
[1]; [20]
  Barnyardgrass plant response rating: 0
[2]; [21]
  Plant response rating, Velvetleaf: 0
[2]; [22]
  Velvetleaf plant response rating: 0
[2]; Preemergence, Rate 125 g/ha
  Velvetleaf plant response rating (0 to 10 scale): 0
[2]; [23]
  Velvetleaf plant response rating: 0
[2]; [24]
  Velvetleaf plant response rating: 0
[2]; [25]
  Velvetleaf plant response rating: 0
[2]; [26]
  Plant response rating, Velvetleaf: 0
[2]; [27]
  Plant response rating, Velvetleaf: 0
[3]; [21]
  Plant response rating, Crabgrass: 0
[3]; [22]
  Crabgrass plant response rating: 0
[3]; Preemergence, Rate 125 g/ha
  Crabgrass plant response rating (0 to 10 scale): 2
[3]; [23]
  Crabgrass plant response rating: 3
[3]; [24]
  Crabgrass plant response rating: 5
[3]; [25]
  Crabgrass plant response rating: 0
[3]; [26]
  Plant response rating, Crabgrass: 0
[3]; [27]
  Plant response rating, Crabgrass: 1
[4]; [17]
  Ducksalad plant response rating: 0
[4]; [18]
  Ducksalad plant response rating: 0
[4]; [19]
  Ducksalad plant response rating: 0
[4]; [20]
  Ducksalad plant response rating: 0
[5]; [21]
  Plant response rating, Wheat: 0
[5]; [22]
  Wheat plant response rating: 0
[5]; [24]
  Wheat plant response rating: 4
[5]; [25]
  Wheat plant response rating: 0
[5]; [26]
  Plant response rating, Wheat: 0
[5]; [27]
  Plant response rating, Wheat: 1
[6]; [21]
  Plant response rating, Corn: 0
[6]; [22]
  Corn plant response rating: 0
[6]; Preemergence, Rate 125 g/ha
  Corn plant response rating (0 to 10 scale): 0
[6]; [23]
  Corn plant response rating: 0
[6]; [24]
  Corn plant response rating: 0
[6]; [25]
  Corn plant response rating: 0
[6]; [26]
  Plant response rating, Corn: 0
[6]; [27]
  Plant response rating, Corn: 0
[7]; [21]
  Plant response rating, Blackgrass: 0
[7]; [22]
  Blackgrass plant response rating: 0
[7]; Preemergence, Rate 125 g/ha
  Blackgrass plant response rating (0 to 10 scale): 0
[7]; [23]
  Blackgrass plant response rating: 4
[7]; [24]
  Blackgrass plant response rating: 7
[7]; [25]
  Blackgrass plant response rating: 0
[7]; [26]
  Plant response rating, Blackgrass: 3
[7]; [27]
  Plant response rating, Blackgrass: 7
[8]; [21]
  Plant response rating, B. signalgrass: 0
[8]; [22]
  B. signalgrass plant response rating: 0
[8]; Preemergence, Rate 125 g/ha
  B. signalgrass plant response rating (0 to 10 scale, 0 is no effect, 10 is complete control): 0
[8]; [23]
  B. signalgrass plant response rating: 1
[8]; [24]
  B. signalgrass plant response rating: 7
[8]; [25]
  B. signalgrass plant response rating: 0
[8]; [26]
  Plant response rating, B. signalgrass: 0
[8]; [27]
  Plant response rating, B. signalgrass: 0
[9]; [21]
  Plant response rating, Nutsedge: 0
[9]; Preemergence, Rate 125 g/ha
  Nutsedge plant response rating (0 to 10 scale): 0
[9]; [23]
  Nutsedge plant response rating: 0
[9]; [24]
  Nutsedge plant response rating: 0
[9]; [25]
  Nutsedge plant response rating: 0
[9]; [26]
  Plant response rating, Nutsedge: 0
[9]; [27]
  Plant response rating, Nutsedge: 0
[10]; Rate 125 g/ha, scale 0 to 10, 0 is no effect, 10 is complete control
  Plant response rating, Bedstraw: 7
[10]; Rate 62 g/ha, scale 0 to 10 (0 no effect, 10 complete control)
  Bedstraw plant response rating: 7
[10]; Rate 250 g/ha, scale of 0 to 10 where 0 is no effect and 10 is complete control
  Plant response rating, Bedstraw: 7
[11]; [21]
  Plant response rating, Wild oats: 0
[11]; [22]
  Wild oats plant response rating: 0
[11]; Preemergence, Rate 125 g/ha
  Wild oats plant response rating (0 to 10 scale): 0
[11]; [23]
  Wild oats plant response rating: 0
[11]; [24]
  Wild oats plant response rating: 4
[11]; [25]
  Wild oats plant response rating: 0
[11]; [26]
  Plant response rating, Wild oats: 0
[11]; [27]
  Plant response rating, Wild oats: 0
[12]; [17]
  Rice plant response rating: 0
[12]; [18]
  Rice plant response rating: 0
[12]; [19]
  Rice plant response rating: 0
[12]; [20]
  Rice plant response rating: 0
[13]; [17]
  S. Flatsedge plant response rating: 0
[13]; [18]
  S. Flatsedge plant response rating: 0
[13]; [19]
  S. Flatsedge plant response rating: 0
[13]; [20]
  S. Flatsedge plant response rating: 0
[14]; [21]
  Plant response rating, Sugarbeets: 0
[14]; [22]
  Sugarbeets plant response rating: 0
[14]; Preemergence, Rate 125 g/ha
  Sugarbeets plant response rating (0 to 10 scale): 0
[14]; [23]
  Sugarbeets plant response rating: 0
[14]; [24]
  Sugarbeets plant response rating: 3
[14]; [25]
  Sugarbeets plant response rating: 0
[14]; [26]
  Plant response rating, Sugarbeets: 0
[14]; [27]
  Plant response rating, Sugarbeets: 0
[15]; [21]
  Plant response rating, Rape: 0
[15]; [22]
  Rape plant response rating: 0
[15]; Preemergence, Rate 125 g/ha
  Rape plant response rating (0 to 10 scale): 0
[15]; [23]
  Rape plant response rating: 0
[15]; [24]
  Rape plant response rating: 2
[15]; [25]
  Rape plant response rating: 0
[15]; [26]
  Plant response rating, Rape: 2
[15]; [27]
  Plant response rating, Rape: 2
[16]; [21]
  Plant response rating, Giant foxtail: 0
[16]; [22]
  Giant foxtail plant response rating: 7
[16]; Preemergence, Rate 125 g/ha
  Giant foxtail plant response rating (0 to 10 scale): 8
[16]; [23]
  Giant foxtail plant response rating: 9
[16]; [24]
  Giant foxtail plant response rating: 9
[16]; [25]
  Giant foxtail plant response rating: 0
[16]; [26]
  Plant response rating, Giant foxtail: 0
[16]; [27]
  Plant response rating, Giant foxtail: 0
